Source: US6639515B2, “Surveillance system for adverse events during drug development studies” (Novo Nordisk A/S, priority 2001, dated 2003)

Legend:
[1] = Phase II trials, adverse events; assay type: in vivo, women
Text: The present invention was used to test a particular drug compound, NNC 46-0020, which was designed to protect healthy women from getting osteoporosis.

[2] = Phase III trials, CUSUM surveillance of prolapses and urinary incontinence; assay type: in vivo, women
Text: Phase III consisted of studies including 3000 women. The inclusion criteria were extended so that the women were older than those participating in phase II. Subjects were randomized to take either a placebo or NNC 46-0020 in one of two doses. […] As explained in detail below, this product has motivated the choice of parameters in the examples.
Early in phase III, a number of reports of prolapses and urinary incontinence were received. It was suspected that there were too many cases of prolapses and incontinence. Therefore, it was decided to set up a surveillance program, including expedited reporting of the events even though they are not classified as serious adverse events. Furthermore, investigators were instructed specifically to check for these types of events.
First, it was decided to set up separate programs for prolapses and incontinence, but later the etiology was suspected to be the same and therefore a combined program was used. The incidence of these events is poorly documented in the literature. There are a few reports on the prevalence and based on these, an incidence of 1%/year for each type of adverse event was chosen. This gives an estimated 60 events during the first year of the trial, distributed with 40 in the treatment group, and 20 in the placebo group. An alternative considered was to have a relative risk of 2, corresponding to an expected number of […]. The lower limit c was chosen as 0.
Due to the focus on these events, a number of adverse events were reported each day, and safety committee meetings were held each week. […] At this time, the process had passed not only the limit corresponding to the incidence of 1% of each type of adverse event, but also the limit corresponding to an incidence of 10%. Such “overrunning” seems to be unavoidable for multi-center studies. The distribution 44 to 1 corresponds to a relative risk of 22 for NNC 46-0020. […]

## COc1ccc2c(c1)OC(C)(C)[C@@H](c1ccccc1)[C@@H]2c1ccc(OCCN2CCCC2)cc1 [NNC 46-0020]
[1]
  adverse events in phase II trials: without major problems regarding adverse events
[2]; after termination of the phase III trials, relative risk estimate reduced
  final analysis of risk of prolapses and incontinence: increased risk of prolapses and incontinence
[2]; phase III, drug (two doses pooled, 2/3 of patients) versus placebo (1/3), at the committee meeting where the alarm limit was passed
  relative risk of prolapses and incontinence: 22
[2]; phase III, unblinded cases at the committee meeting where the alarm limit was passed
  distribution of adverse events (prolapses and incontinence), treatment group to placebo group: 44 to 1
